Measurements reported in patent publication US20250313537A1, “BENZ[…] AND METHODS OF USE IN TREATING CANCER” (University of Cincinnati, priority 2022, published 2025).
Entries after “also recorded” stand apart in the source; their conditions may differ.

Tests used:
[1] = tested on: H1792 cells; experiment: In vitro viability assay (Cell Titer 96 Aqueous One), H1792; assay type: cell-based, human; settings: H1792 cells (FIG. 6, 7A, 7B)
Experimental: (§1) Cell lines tested were purchased from the American Type Culture Collection (ATCC). Cells were maintained in Dulbecco's Modified Eagle's Medium (DMEM) (Corning) or Roswell Park Memorial Institute (RPMI) 1640 Medium (Gibco). Media for lines was supplemented with 10% (v/v) Fetal Bovine Serum (FBS) (Corning) and 100 U/mL penicillin/streptomycin (Sigma). Lines were grown at 37° C. with 5% (v/v) CO2. Cells were passaged twice a week at 1:10 ratio and reached 80 to 90% confluency between 72 and 96 hours.
(§2) For in vitro studies drug was solubilized in dimethyl sulfoxide (DMSO, 0.125%) prior to use. For mouse studies drug was solubilized in a co-solvent formulation: propylene glycol (40%); ethanol (10%); benzyl alcohol (2%); benzoic acid (2%); sodium benzoate (2%).
(§3) For cell proliferation viability studies, cells were assayed using the Cell Titer 96® Aqueous One Solution Assay (Promega). IC50 values were determined using the ‘[Inhibitor] versus normalized response’ nonlinear regression function and the log of inhibitor concentration in Prism 8 software (version 8.3.0 for MacOS).

[2] = tested on: GABAA receptors; experiment: Single-cell patch-clamp electrophysiology in H1792 cells; assay type: cell-based, human; settings: 1 μM GABA + 4 μM QH-II-066
From the text: Recording solutions were purchased from Nanion Technologies.

[3] = tested on: LC3B- and NIX-positive puncta in H1792 cells; experiment: Confocal immunofluorescence of autophagosome puncta; assay type: cell-based, human; settings: H1792, relative to DMSO control
Experimental: Cells were seeded on sterile glass cover slips and grown overnight at 37° C. Cells were then rinsed with cold PBS and fixed in 4% paraformaldehyde (30 min, room temperature). Fixed cells were rinsed in PBS (3×5 min at room-temperature), and permeabilized (15 min in PBS containing 0.1% Triton X-100). Cells were washed in PBS (3× for 5 min at room-temperature) and incubated with blocking buffer (PBS containing 0.3% Triton X-100 and 3% BSA) for 1 hr at room-temperature with gentle shaking. Blocking solution was aspirated, cells washed with ice-cold PBS, and incubated overnight with primary Ab (LC3B or NIX) diluted 1:200 in sterile 0.5% BSA in PBS at 4° C. on the cover slip placed on a glass slide kept inside a humidified 10 cm dish with gentle shaking 60. Cells were washed (3× for 5 min in PBS) and incubated with fluorophore conjugated secondary Ab goat anti-rabbit Alexa Fluor 594 (Abcam) in 2% normal donkey serum at room-temperature for 1 hr in dark. Cells were washed (3× for 5 min in PBS) under low light and mounted on a glass slide in […] Antifade Mounting Medium with DAPI (Vector Laboratories). The following Abs were used (1:200 dilution): rabbit anti-human LC3B (Cell Signaling Technology) and rabbit NIX (Cell Signaling Technology). Slides were imaged on a Zeiss LSM 710 laser scanning confocal microscope and analyzed using NIH Fiji ImageJ2 (version 1.53c).

[4] = tested on: GABARAP; experiment: Western blot of GABARAP in H1792 cells; assay type: cell-based, human
Experimental: DNA was sheared by sonication. Lysates were kept on ice for 30 min, centrifuged 10 min (13,500×g, 4° C.), and protein concentration of supernatant determined by a Bradford assay (Protein Assay Dye Reagent, Bio-Rad). Lysates were mixed 1:1 with 2× Laemmli sample buffer containing β-mercaptoethanol and heated 5 min at 95° C. Protein was resolved by SDS-PAGE using 4-20% gradient polyacrylamide gels (Bio-Rad), then transferred to nitrocellulose membranes (Bio-Rad) for 2 hr at 100 V in tris-glycine transfer buffer containing 20% methanol. Membranes were blocked at room-temperature in 5% 1×TBST blocking buffer (TBS with 0.1% Tween-20 and 5% non-fat dry milk) for 1 hr with gentle agitation, followed by overnight incubation with primary Ab and gentle shaking at 4° C. The primary Abs were diluted as follows: GAPDH (1:1000, Cell Signaling Technology); GABARAP (1:1000, Cell Signaling Technology); NIX (1:1000, Cell Signaling Technology). Immunodetection was performed with anti-rabbit horseradish-peroxidase-conjugated secondary antibody (1:10000, Cell Signaling Technology). Post-primary Ab incubation, membranes were washed (3× for 10 min in TBST at room-temperature), probed with rabbit HRP tagged secondary antibody (1:3000, Cell Signaling Technology), and processed for chemiluminescence detection using ECL kit (Thermo Scientific). […]

[5] = tested on: NIX; experiment: Western blot of NIX in H1792 cells; assay type: cell-based, human
Experimental: DNA was sheared by sonication. Lysates were kept on ice for 30 min, centrifuged 10 min (13,500×g, 4° C.), and protein concentration of supernatant determined by a Bradford assay (Protein Assay Dye Reagent, Bio-Rad). Lysates were mixed 1:1 with 2× Laemmli sample buffer containing β-mercaptoethanol and heated 5 min at 95° C. Protein was resolved by SDS-PAGE using 4-20% gradient polyacrylamide gels (Bio-Rad), then transferred to nitrocellulose membranes (Bio-Rad) for 2 hr at 100 V in tris-glycine transfer buffer containing 20% methanol. Membranes were blocked at room-temperature in 5% 1×TBST blocking buffer (TBS with 0.1% Tween-20 and 5% non-fat dry milk) for 1 hr with gentle agitation, followed by overnight incubation with primary Ab and gentle shaking at 4° C. The primary Abs were diluted as follows: GAPDH (1:1000, Cell Signaling Technology); GABARAP (1:1000, Cell Signaling Technology); NIX (1:1000, Cell Signaling Technology). Immunodetection was performed with anti-rabbit horseradish-peroxidase-conjugated secondary antibody (1:10000, Cell Signaling Technology). Post-primary Ab incubation, membranes were washed (3× for 10 min in TBST at room-temperature), probed with rabbit HRP tagged secondary antibody (1:3000, Cell Signaling Technology), and processed for chemiluminescence detection using ECL kit (Thermo Scientific). Chemiluminescence images were acquired using ChemiDoc Touch Imaging System (Bio-Rad).

[6] = tested on: Lewis Lung Carcinoma cells; experiment: Mitochondrial depolarization, TMRE binding by FACS; assay type: cell-based, mouse; settings: for TMRE binding (depolarization): Lewis Lung Carcinoma cells, FACS, within 15 minutes of incubation; for shift in electric charge distribution / depolarization of cancer cells: different/disparate cancer cell types
[7] = tested on: cancer cell lines A375, H1792, LN18, LLC; experiment: In vitro viability assay (Cell Titer 96 Aqueous One), cancer cell lines; assay type: cell-based, human, mouse; settings: for cytotoxicity of NOR-variant relative to non-NOR-variant: SRE-III-35 vs TA-IV-74, TA-II-59 vs TA-II-73
Experimental: as §1, §2, §3

[8] = tested on: Lewis Lung Carcinoma (LLC) tumors; experiment: Bilateral flank LLC tumor growth delay in C57Bl6 mice; assay type: in vivo, mouse
From the text: as §2
For subcutaneous xenograft tumor growth delay experiments, black 6 mice (C57Bl6) were purchased (Charles River Laboratories) and housed at University of Cincinnati LAMS. Purchased mice were allowed to accommodate for a week prior to experiment. Mice were housed in pathogen-free rooms and clinical health evaluated weekly by veterinary staff of the University of Cincinnati LAMS. All animal studies were conducted in accordance with approval of a University of Cincinnati IACUC.
LLC1 cells (a million) grown in RPMI medium were washed in cold PBS and mixed with Matrigel 25%, then injected subcutaneously into left and right flanks above the hind limbs of 6 to 8-week-old mice. When subcutaneous tumors were palpable (˜100 mm^3 in size) the following treatments groups were initiated: (1) vehicle (2) drug. In mice receiving vehicle alone, the vehicle was injected i.p for 7 days. In mice receiving drug, drug (2.5 mg/kg body weight) was injected i.p. for 7 days. Following end of treatment, tumor volume were taken for growth delay studies. Mouse tumors were measured by Vernier calipers. Tumor volume was calculated using the formula: 4/3π×(l×h2), where: l and h are radii of the tumor taken perpendicular to each other. Tumor size was measured three times a week using a caliper.

[9] = 2.5 mg/kg i.p. for seven consecutive days

## C#Cc1ccc2c(c1)C(c1ccccc1F)=NC(O)C(=O)N2 (stereo not drawn) [MYM-I-59, 7-ethynyl-5-(2-fluorophenyl)-3-hydroxy-1,3-dihydro-2H-benzo[e][1,4]diazepin-2-one]
[1]
  cytotoxicity (activity): poorly or inactive

## C#Cc1ccc2c(c1)C(c1ccccc1)=NCC(=O)N2C [QH-II-066]
[2]
  current response to GABA plus compound over GABA alone: enhanced response; also recorded: enhances the current signal
[3]
  LC3B-positive puncta: increased puncta
  NIX-positive puncta: increased puncta
[4]; H1792, 72 hours
  GABARAP dimerization: dimerize
[4]; H1792, 72 hours post-treatment
  GABARAP protein level: pronounced accumulation
[5]; H1792
  dose dependence of induced NIX dimerization: dose-dependent
[5]; H1792, 72 hours
  NIX dimerization: dimerize
[5]; H1792, 72 hours post-treatment
  NIX protein level: pronounced accumulation

## O=C1CN=C(c2ccccc2)c2cc(C3CC3)ccc2N1 [SRE-III-35, 7-cyclopropyl-5-phenyl-1,3-dihydro-2H-benzo[e][1,4]diazepin-2-one]
[6]
  TMRE binding (depolarization): reduced TMRE binding
  shift in electric charge distribution / depolarization of cancer cells: depolarizing
[7]
  cytotoxicity of NOR-variant relative to non-NOR-variant: 2 fold
[7]; cytotoxicity
  potency relative to TA-II-59: equally as potent
[8]; [9]
  tumor control relative to vehicle mice: significant tumor control

## O=C1CN=C(c2ccccc2F)c2cc(C3CC3)ccc2N1 [SRE-III-43, 7-cyclopropyl-5-(2-fluorophenyl)-1,3-dihydro-2H-benzo[e][1,4]diazepin-2-one]
[6]
  TMRE binding (depolarization): reduced TMRE binding
  shift in electric charge distribution / depolarization of cancer cells: depolarizing

## C#Cc1ccc2c(c1)C(c1ccccc1C)=NCC(=O)N2 [TA-II-59, 7-ethynyl-5-(o-tolyl)-1,3-dihydro-2H-benzo[e][1,4]diazepin-2-one]
[6]
  TMRE binding (depolarization): reduced TMRE binding
  shift in electric charge distribution / depolarization of cancer cells: depolarizing
[7]; LN18, H1792, A375, LLC1
  cytotoxicity to cancer cells: most potent
[7]
  cytotoxicity of NOR-variant relative to non-NOR-variant: 2 fold
[7]; cytotoxicity
  potency relative to QH-II-066: an order of magnitude more potent
[8]; [9]
  tumor control relative to vehicle mice: significant tumor control

## C#Cc1ccc2c(c1)C(c1ccccc1F)=NCC(=S)N2C [TA-III-50, 7-ethynyl-5-(2-fluorophenyl)-1-methyl-1,3-dihydro-2H-benzo[e][1,4]diazepine-2-thione]
[1]
  cytotoxicity (activity): poorly or inactive

## C#Cc1ccc2c(c1)C(c1ccccc1)=NCC(=S)N2C [TA-III-52, 7-ethynyl-1-methyl-5-phenyl-1,3-dihydro-2H-benzo[e][1,4]diazepine-2-thione]
[1]
  cytotoxicity (activity): poorly or inactive

## O=C1CN=C(c2ccccc2)c2cc(Br)cc(Br)c2N1 [TA-III-56, 7,9-dibromo-5-phenyl-1,3-dihydro-2H-benzo[e][1,4]diazepin-2-one]
[1]
  cytotoxicity (activity): poorly or inactive

## C#Cc1cc(C#C)c2c(c1)C(c1ccccc1)=NCC(=O)N2C [TA-III-62, 7,9-diethynyl-1-methyl-5-phenyl-1,3-dihydro-2H-benzo[e][1,4]diazepin-2-one]
[1]
  cytotoxicity (activity): poorly or inactive

## C#Cc1ccc2c(c1)C(c1ccccc1)=NC(O)C(=O)N2C (stereo not drawn) [TA-III-70, 7-ethynyl-3-hydroxy-1-methyl-5-phenyl-1,3-dihydro-2H-benzo[e][1,4]diazepin-2-one]
[1]
  cytotoxicity (activity): poorly or inactive

## CN1C(=O)CN=C(c2ccccc2)c2cc(C3CC3)ccc21 [TA-IV-74, 7-cyclopropyl-1-methyl-5-phenyl-1,3-dihydro-2H-benzo[e][1,4]diazepin-2-one]
[8]; [9]
  effect compared with the other compounds tested: most significant effect; also recorded: most effective
  tumor control relative to vehicle mice: significant tumor control
[8]; at 25 days, 2.5 mg/kg i.p. for seven days
  tumor volume: no increase in tumor volume
